In patent US11000033B2, “Ketone or oxime compound, and herbicide” (NISSAN CHEMICAL CORPORATION, priority 2014, dated 2021):

Legend:
Format in all cases: in vivo
beet [1] = assay: Test Example 5: effect on crop by foliage application, plastic box (symbol f); settings: 320 g/ha, 3 weeks after application
Procedure, shortened: (§1)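 Diluvial soil, sterilized and boxed (21 × 13 × 7 cm), received spot-sown seed covered by about 1.5 cm soil; plants were then greenhouse-grown at 25–30° C.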

Abutilon theophrasti = assay: Test Example 5: herbicidal effect by foliage application, plastic box (symbol M); settings: 320 g/ha, 3 weeks after application
Procedure, shortened: (§2)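 Emulsion formulation, diluted with water to the intended rate, was applied uniformly to leaves by small sprayer. Recipients were 14-day greenhouse-grown seedlings (25° C. to 30° C.). Assessment followed at 3 weeks.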

Stellaria media [2] = assay: Test Example 5: herbicidal effect by foliage application, plastic box (symbol P); settings: 320 g/ha, 3 weeks after application
Procedure, shortened: as §2

Stellaria media [3] = assay: Test Example 4: herbicidal effect by soil treatment (symbol P); settings: 320 g/ha
Procedure, shortened: (§3)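 Seeds were sown in sterilized diluvial soil, covered with about 1.5 cm of soil, and the soil surface was sprayed with a water-diluted emulsion of the compound at a predetermined rate. Plants grew in a greenhouse at 25° C. to 30° C.; effects were scored visually 3 weeks after application.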

Lolium multiflorum Lam. = assay: Test Example 4: herbicidal effect by soil treatment (symbol K); settings: 320 g/ha
Procedure, shortened: as §3

Digitaria ciliaris [4] = assay: Test Example 4: herbicidal effect by soil treatment (symbol F); settings: 320 g/ha
Procedure, shortened: as §3

Veronica persica [5] = assay: Test Example 5: herbicidal effect by foliage application, plastic box (symbol R); settings: 320 g/ha, 3 weeks after application
Procedure, shortened: as §2

beet [6] = assay: Test Example 4: effect on crop by soil treatment (symbol f); settings: 320 g/ha
Procedure, shortened: (§4)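 Sterilized diluvial soil, spot sowing, ~1.5 cm soil cover; greenhouse 25–30° C.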

Alopecurus myosuroides = assay: Test Example 4: herbicidal effect by soil treatment (symbol J); settings: 320 g/ha
Procedure, shortened: as §3

Veronica persica [7] = assay: Test Example 4: herbicidal effect by soil treatment (symbol R); settings: 320 g/ha
Procedure, shortened: as §3

soybean = assay: Test Example 4: effect on crop by soil treatment (symbol d); settings: 320 g/ha
Procedure, shortened: as §4

Digitaria ciliaris [8] = assay: Test Example 5: herbicidal effect by foliage application, plastic box (symbol F); settings: 320 g/ha, 3 weeks after application
Procedure, shortened: as §2

[9] = system: Echinochloa crus-galli var. crus-galli; assay: Test Example 4: herbicidal effect by soil treatment (symbol H); settings: 320 g/ha
Procedure, shortened: as §3

Galium spurium = assay: Test Example 4: herbicidal effect by soil treatment (symbol Q); settings: 320 g/ha
Procedure, shortened: as §3

rice = assay: Test Example 4: effect on crop by soil treatment (symbol b); settings: 320 g/ha
Procedure, shortened: as §4

rice plant = assay: Test Example 5: effect on crop by foliage application, plastic box (symbol b); settings: 320 g/ha, 3 weeks after application
Procedure, shortened: as §1

Avena fatua = assay: Test Example 5: herbicidal effect by foliage application, plastic box (symbol I); settings: 320 g/ha, 3 weeks after application
Procedure, shortened: as §2

rapeseed = assay: Test Example 4: effect on crop by soil treatment (symbol g); settings: 320 g/ha
Procedure, shortened: as §4

wheat = assay: Test Example 5: effect on crop by foliage application, plastic box (symbol e); settings: 320 g/ha, 3 weeks after application
Procedure, shortened: as §1

Apera spica-venti = assay: Test Example 5: herbicidal effect by foliage application, plastic box (symbol L); settings: 320 g/ha, 3 weeks after application
Procedure, shortened: as §2

corn = assay: Test Example 4: effect on crop by soil treatment (symbol c); settings: 320 g/ha
Procedure, shortened: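 Crop seed is sown in spots together with several weed species in a box of sterilized diluvial soil. It is covered by about 1.5 cm of soil and kept in a greenhouse held between 25° C. and 30° C.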

Chenopodium album = assay: Test Example 5: herbicidal effect by foliage application, plastic box (symbol O); settings: 320 g/ha, 3 weeks after application
Procedure, shortened: as §2

Setaria viridis = assay: Test Example 5: herbicidal effect by foliage application, plastic box (symbol G); settings: 320 g/ha, 3 weeks after application
Procedure, shortened: as §2

[10] = system: directly sowed rice plant; assay: Test Example 3: effect on crop by foliage application, Wagner pot (symbol b); settings: application herbicide amount 320 g/ha
Procedure, shortened: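 Steps: fill a 1/10000-are Wagner pot with alluvial soil; add water and mix to submerge at 0.1–0.5 cm depth; sow rice plus Echinochloa crus-galli var. crus-galli, Leptochloa chinensis and Cyperus difformis; grow in a 25–30 °C greenhouse.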

SMILES: CON=C(C)CC1CC(OC(=O)c2cc(C)on2)=C(c2c(C)cc(C)cc2C)C1=O (stereo not drawn) [1-100]
- f: beet, effect on crop (criteria 0-5) (beet [1]): 0 (Herbicidal ratio of 5% or lower (almost no effect))
- M: Abutilon theophrasti, herbicidal effect (criteria 0-5) (Abutilon theophrasti): 4 (Herbicidal ratio of 70% or higher and lower than 90%)
- P: Stellaria media, herbicidal effect (criteria 0-5) (Stellaria media [2]): 0 (Herbicidal ratio of 5% or lower (almost no effect))
- P: Stellaria media, herbicidal effect grade (Stellaria media [3]): 0 (Herbicidal ratio of 5% or lower (almost no effect))
- K: Lolium multiflorum Lam., herbicidal effect grade (Lolium multiflorum Lam.): 5 (Herbicidal ratio of 90% or more (almost completely withered))
- F: Digitaria ciliaris, herbicidal effect grade (Digitaria ciliaris [4]): 5 (Herbicidal ratio of 90% or more (almost completely withered))
- R: Veronica persica, herbicidal effect (criteria 0-5) (Veronica persica [5]): 3 (Herbicidal ratio of 40% or higher and lower than 70%)
- f: beet, effect grade on crop (beet [6]): 0 (Herbicidal ratio of 5% or lower (almost no effect))
- J: Alopecurus myosuroides, herbicidal effect grade (Alopecurus myosuroides): 5 (Herbicidal ratio of 90% or more (almost completely withered))
- R: Veronica persica, herbicidal effect grade (Veronica persica [7]): 1 (Herbicidal ratio of 5% or higher and lower than 20%)
- d: soybean, effect grade on crop (soybean): 2 (Herbicidal ratio of 20% or higher and lower than 40%)
- F: Digitaria ciliaris, herbicidal effect (criteria 0-5) (Digitaria ciliaris [8]): 5 (Herbicidal ratio of 90% or more (almost completely withered))
- H: Echinochloa crus-galli var. crus-galli, herbicidal effect grade [9]: 5 (Herbicidal ratio of 90% or more (almost completely withered))
- Q: Galium spurium, herbicidal effect grade (Galium spurium): 0 (Herbicidal ratio of 5% or lower (almost no effect))
- b: directly sowed rice plant, effect grade on crop (rice): 5 (Herbicidal ratio of 90% or more (almost completely withered))
- b: directly sowed rice plant, effect on crop (criteria 0-5) (rice plant): 5 (Herbicidal ratio of 90% or more (almost completely withered))
- I: Avena fatua, herbicidal effect (criteria 0-5) (Avena fatua): 5 (Herbicidal ratio of 90% or more (almost completely withered))
- g: rapeseed, effect grade on crop (rapeseed): 3 (Herbicidal ratio of 40% or higher and lower than 70%)
- e: wheat, effect on crop (criteria 0-5) (wheat): 5 (Herbicidal ratio of 90% or more (almost completely withered))
- L: Apera spica-venti, herbicidal effect (criteria 0-5) (Apera spica-venti): 5 (Herbicidal ratio of 90% or more (almost completely withered))
- c: corn, effect grade on crop (corn): 5 (Herbicidal ratio of 90% or more (almost completely withered))
- O: Chenopodium album, herbicidal effect (criteria 0-5) (Chenopodium album): 1 (Herbicidal ratio of 5% or higher and lower than 20%)
- G: Setaria viridis, herbicidal effect (criteria 0-5) (Setaria viridis): 5 (Herbicidal ratio of 90% or more (almost completely withered))
- effect on crop b (directly sowed rice plant), grade 0-5 [10]: 5 (Herbicidal ratio of 90% or more (almost completely withered))

SMILES: CON=C(C)CC1CC(OC(=O)c2cnoc2C2CC2)=C(c2c(C)cc(C)cc2C)C1=O (stereo not drawn) [1-103]
- f: beet, effect on crop (criteria 0-5) (beet [1]): 0 (Herbicidal ratio of 5% or lower (almost no effect))
- M: Abutilon theophrasti, herbicidal effect (criteria 0-5) (Abutilon theophrasti): 4 (Herbicidal ratio of 70% or higher and lower than 90%)
- P: Stellaria media, herbicidal effect (criteria 0-5) (Stellaria media [2]): 2 (Herbicidal ratio of 20% or higher and lower than 40%)
- P: Stellaria media, herbicidal effect grade (Stellaria media [3]): 0 (Herbicidal ratio of 5% or lower (almost no effect))
- K: Lolium multiflorum Lam., herbicidal effect grade (Lolium multiflorum Lam.): 5 (Herbicidal ratio of 90% or more (almost completely withered))
- F: Digitaria ciliaris, herbicidal effect grade (Digitaria ciliaris [4]): 5 (Herbicidal ratio of 90% or more (almost completely withered))
- R: Veronica persica, herbicidal effect (criteria 0-5) (Veronica persica [5]): 3 (Herbicidal ratio of 40% or higher and lower than 70%)
- f: beet, effect grade on crop (beet [6]): 0 (Herbicidal ratio of 5% or lower (almost no effect))
- J: Alopecurus myosuroides, herbicidal effect grade (Alopecurus myosuroides): 5 (Herbicidal ratio of 90% or more (almost completely withered))
- R: Veronica persica, herbicidal effect grade (Veronica persica [7]): 0 (Herbicidal ratio of 5% or lower (almost no effect))
- d: soybean, effect grade on crop (soybean): 1 (Herbicidal ratio of 5% or higher and lower than 20%)
- F: Digitaria ciliaris, herbicidal effect (criteria 0-5) (Digitaria ciliaris [8]): 5 (Herbicidal ratio of 90% or more (almost completely withered))
- H: Echinochloa crus-galli var. crus-galli, herbicidal effect grade [9]: 5 (Herbicidal ratio of 90% or more (almost completely withered))
- Q: Galium spurium, herbicidal effect grade (Galium spurium): 0 (Herbicidal ratio of 5% or lower (almost no effect))
- b: directly sowed rice plant, effect grade on crop (rice): 5 (Herbicidal ratio of 90% or more (almost completely withered))
- b: directly sowed rice plant, effect on crop (criteria 0-5) (rice plant): 5 (Herbicidal ratio of 90% or more (almost completely withered))
- I: Avena fatua, herbicidal effect (criteria 0-5) (Avena fatua): 5 (Herbicidal ratio of 90% or more (almost completely withered))
- g: rapeseed, effect grade on crop (rapeseed): 3 (Herbicidal ratio of 40% or higher and lower than 70%)
- e: wheat, effect on crop (criteria 0-5) (wheat): 5 (Herbicidal ratio of 90% or more (almost completely withered))
- L: Apera spica-venti, herbicidal effect (criteria 0-5) (Apera spica-venti): 5 (Herbicidal ratio of 90% or more (almost completely withered))
- c: corn, effect grade on crop (corn): 5 (Herbicidal ratio of 90% or more (almost completely withered))
- O: Chenopodium album, herbicidal effect (criteria 0-5) (Chenopodium album): 2 (Herbicidal ratio of 20% or higher and lower than 40%)
- G: Setaria viridis, herbicidal effect (criteria 0-5) (Setaria viridis): 5 (Herbicidal ratio of 90% or more (almost completely withered))
- effect on crop b (directly sowed rice plant), grade 0-5 [10]: 5 (Herbicidal ratio of 90% or more (almost completely withered))

SMILES: CON=C(C)CC1CC(OC(=O)N2CCOCC2)=C(c2c(C)cc(C)cc2C)C1=O (stereo not drawn) [1-104]
- f: beet, effect on crop (criteria 0-5) (beet [1]): 0 (Herbicidal ratio of 5% or lower (almost no effect))
- M: Abutilon theophrasti, herbicidal effect (criteria 0-5) (Abutilon theophrasti): 3 (Herbicidal ratio of 40% or higher and lower than 70%)
- P: Stellaria media, herbicidal effect (criteria 0-5) (Stellaria media [2]): 1 (Herbicidal ratio of 5% or higher and lower than 20%)
- P: Stellaria media, herbicidal effect grade (Stellaria media [3]): 0 (Herbicidal ratio of 5% or lower (almost no effect))
- K: Lolium multiflorum Lam., herbicidal effect grade (Lolium multiflorum Lam.): 5 (Herbicidal ratio of 90% or more (almost completely withered))
- F: Digitaria ciliaris, herbicidal effect grade (Digitaria ciliaris [4]): 5 (Herbicidal ratio of 90% or more (almost completely withered))
- R: Veronica persica, herbicidal effect (criteria 0-5) (Veronica persica [5]): 1 (Herbicidal ratio of 5% or higher and lower than 20%)
- f: beet, effect grade on crop (beet [6]): 0 (Herbicidal ratio of 5% or lower (almost no effect))
- J: Alopecurus myosuroides, herbicidal effect grade (Alopecurus myosuroides): 5 (Herbicidal ratio of 90% or more (almost completely withered))
- R: Veronica persica, herbicidal effect grade (Veronica persica [7]): 0 (Herbicidal ratio of 5% or lower (almost no effect))
- d: soybean, effect grade on crop (soybean): 0 (Herbicidal ratio of 5% or lower (almost no effect))
- F: Digitaria ciliaris, herbicidal effect (criteria 0-5) (Digitaria ciliaris [8]): 5 (Herbicidal ratio of 90% or more (almost completely withered))
- H: Echinochloa crus-galli var. crus-galli, herbicidal effect grade [9]: 5 (Herbicidal ratio of 90% or more (almost completely withered))
- Q: Galium spurium, herbicidal effect grade (Galium spurium): 0 (Herbicidal ratio of 5% or lower (almost no effect))
- b: directly sowed rice plant, effect grade on crop (rice): 5 (Herbicidal ratio of 90% or more (almost completely withered))
- b: directly sowed rice plant, effect on crop (criteria 0-5) (rice plant): 5 (Herbicidal ratio of 90% or more (almost completely withered))
- I: Avena fatua, herbicidal effect (criteria 0-5) (Avena fatua): 5 (Herbicidal ratio of 90% or more (almost completely withered))
- g: rapeseed, effect grade on crop (rapeseed): 2 (Herbicidal ratio of 20% or higher and lower than 40%)
- e: wheat, effect on crop (criteria 0-5) (wheat): 0 (Herbicidal ratio of 5% or lower (almost no effect))
- L: Apera spica-venti, herbicidal effect (criteria 0-5) (Apera spica-venti): 5 (Herbicidal ratio of 90% or more (almost completely withered))
- c: corn, effect grade on crop (corn): 1 (Herbicidal ratio of 5% or higher and lower than 20%)
- O: Chenopodium album, herbicidal effect (criteria 0-5) (Chenopodium album): 2 (Herbicidal ratio of 20% or higher and lower than 40%)
- G: Setaria viridis, herbicidal effect (criteria 0-5) (Setaria viridis): 5 (Herbicidal ratio of 90% or more (almost completely withered))
- effect on crop b (directly sowed rice plant), grade 0-5 [10]: 5 (Herbicidal ratio of 90% or more (almost completely withered))
